{"source": "patent US11076597B2", "about": "“High stress resistant plant growth regulator and preparation method and use thereof” (SHANGHAI INSTITUTES FOR BIOLOGICAL SCIENCES, CHINESE …, priority 2015, dated 2021)", "key": {"[1]": {"target": "T1, PYL2 receptor-HAB1 protein phosphatase complex (Arabidopsis thaliana, UniProt O80992)", "T1 construct": "made in house; host or cells: E. coli BL21 (DE3)", "T1 sequence (O80992 14-188)": "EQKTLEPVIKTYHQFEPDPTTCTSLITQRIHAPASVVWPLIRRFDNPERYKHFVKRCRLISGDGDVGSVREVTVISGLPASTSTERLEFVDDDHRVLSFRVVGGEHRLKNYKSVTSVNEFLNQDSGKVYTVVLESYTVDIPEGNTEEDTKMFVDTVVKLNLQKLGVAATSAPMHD", "T1 sequence (Q9CAJ0 172-511 partner limits assumed)": "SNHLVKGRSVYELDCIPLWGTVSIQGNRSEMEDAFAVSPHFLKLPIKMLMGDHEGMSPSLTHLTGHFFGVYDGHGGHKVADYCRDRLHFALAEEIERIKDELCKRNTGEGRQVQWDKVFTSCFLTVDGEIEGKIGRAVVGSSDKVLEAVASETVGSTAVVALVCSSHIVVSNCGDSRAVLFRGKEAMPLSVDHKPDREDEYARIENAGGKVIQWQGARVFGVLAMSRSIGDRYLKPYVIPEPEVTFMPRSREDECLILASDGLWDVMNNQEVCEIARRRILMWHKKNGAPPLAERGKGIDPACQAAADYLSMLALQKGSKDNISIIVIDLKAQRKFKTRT", "test": "AlphaScreen assay: promotion of PYL2 receptor binding to PP2C protein phosphatase HAB1", "settings": "6×His-SUMO-tagged PYL2 (aa 14-188), Biotin-tagged HAB1 (aa 172-511), 100 nM each, pH 7.4, 1.5 h room temperature", "source_text": "The construction method of recombinant plasmids for the Arabidopsis thaliana genes PYL1 (amino acid sequence 36-211), PYL2 (amino acid sequence 14-188) with dual tags of 6×His and SUMO sequence and the Arabidopsis thaliana gene HAB1 (amino acid sequence 172-511) with the Biotin tag sequence is described in detail in “A gate-latch-lock mechanism for hormone signaling by abscisic acid receptors” (Nature, Vol 462, 2009). The construction method of recombinant plasmids for PYR1 and PYL7 (whole gene coding sequence) and Soybean GmPYL6 and rice OsPYL2 with dual tags of 6×His and SUMO sequence is the same as that for Arabidopsis PYL2.\nThe above recombinant plasmid is transformed into competent cell of E. coli BL21 (DE3) (purchased from NEB company), and inoculated into 200 ml of LB liquid medium containing Amp resistance (purchased from OXOID company) and cultured overnight at 37° C. at 200 rpm; and inoculated into 2 L of LB liquid medium containing Amp resistance at a ratio of 1:50-1:100 for an extended culture, and cultured at 37° C., 200 rpm for 3-4 hours, and at a low temperature of 16° C. until OD600 is about 0.8-1.0. Recombinant plasmids for PYR1/PYL1/PYL2/PYL7/GmPYL6/OsPYL2 with dual tags of 6×His and SUMO sequence were induced overnight with 100 μM of IPTG while HAB1 recombinant plasmid with the Biotin tag sequence was induced simultaneously with 100 μM of IPTG and 40 μM of biotin.\nAfter 16 hours of induction, the bacterial solution was centrifuged at 4000 rpm for 20 minutes at 4° C. in a low-speed high-capacity centrifuge, and the bacteria cells were collected. Bacteria cells were resuspended in 50 ml of extraction buffer (containing 20 mM Tris, pH 8.0, 200 mM NaCl and 10% (v/v) glycerol) for per 2 L of bacterial solution and then subjected to pressure-breaking at […] and 4° C. for 3-5 times. The broken cells were subjected to ultracentrifugation, centrifuged at 16000 rpm for 30 minutes, and this process was repeated twice. The supernatant was collected and subjected to an affinity chromatography column.\nFor PYR/PYL proteins with dual tags of 6×His and SUMO sequences, 50 ml of affinity chromatography Ni column (50 ml Ni-NTA column, available from GE) was used. Firstly, the column was equilibrated with 600 ml of 10% buffer B (containing 20 mM Tris, PH 8.0, 200 mM NaCl, 500 mM imidazole and 10% glycerol), and then eluted with 200 ml of 50% buffer B and finally eluted with 100 ml of 100% buffer B. Proteins for crystal analysis were mixed with ulp1 enzyme at a molar ratio of 1000:1 for enzymatic dialysis overnight. The digested proteins were subjected to affinity chromatography on a Ni column once more. The collected solution was subjected to a HiLoad 26/60 Superdex200 gel filtration column (commercially available from GE) and eluted with an elution solution (containing 25 mM Tris, pH 8.0, 200 mM ammonium acetate, 1 mM dithiotreitol and 1 mM EDTA) to further separate and purify the protein.\nFor a HAB1 protein with a Biotin tag sequence, it was subjected to a 50 ml MBP affinity column (available from GE). The column was firstly equilibrated with 600 ml of 10% buffer C (containing 20 mM Tris, pH 8.0, 200 mM NaCl, 10 mM Maltose and 10% Glycerol), and eluted with 200 ml of 50% buffer C and finally eluted with 100 ml of 100% buffer C. The collection solution was subjected to a HiLoad 26/60 Superdex200 gel filtration column and eluted with an elution solution (containing 20 mM Tris, pH 8.0, 200 mM NaCl and 10% Glycerol) to further separate and purify the protein. […]"}, "Arabidopsis aba2-1": {"tested_on": "Arabidopsis aba2-1", "test": "Leaf transpiration experiment (leaf temperature by thermal imager), Arabidopsis", "format": "in vivo, Arabidopsis thaliana", "settings": "for duration of the leaf temperature increase: FIG. 4a, 4c; for inhibitory effect on leaf transpiration compared with ABA: Arabidopsis aba2-1, spray", "experimental": "ABA synthesis mutant aba2-1 was used in Arabidopsis leaf transpiration experiment. […] Therefore, this mutant is used to exclude the effect of endogenous ABA on the transpiration experiment. The plants were sprayed with a solution containing 0.05% tween-20 and corresponding concentrations of (+)-ABA/0224/0304/0706/0715/0428 or 0.05% Tween-20 and 0.05% DMSO (control) after three weeks of continuous watering with an amount of 1.2 ml/pot. Leaf transpiration experiments of soybeans were conducted at 26° C. with long-day lighting and soybeans were sprayed with a solution containing 0.1% tween-20 and 20 μM (+)-ABA/0224/0304 compound or 0.1% Tween-20 and 0.05% DMSO (control) 14 days after sowing with an amount of 4 ml/pot; the leaf transpiration experiments of cottons were sprayed with a solution containing 0.1% tween-20 and 20 μM (+)-ABA/0224 compound or 0.1% Tween-20 and 0.05% DMSO, respectively, 25 days after sowing with an amount of 4 ml/pot; the leaf transpiration experiments of wheats were sprayed with a solution containing 0.1% tween-20 and 100 μM (+)-ABA/0224 compound or 0.1% Tween-20 and 0.05% DMSO (control) 18 days after sowing with an amount of 6 ml/pot. Images were taken daily using the FLIR A655sc thermal imager at the same time before and after spraying.\nIn this experiment, the temperature change of leaf surface was observed and recorded by an infrared camera, thus reflecting the strength of plant transpiration. The stronger the transpiration, the lower the leaf temperature."}, "[2]": {"settings": "5 μM spray, after spraying, FIG. 4a-4c"}, "[3]": {"settings": "5 μM spray, four days after spraying"}}, "note": "Entries after “also recorded” stand apart in the source; their conditions may differ. Like-named read-outs stand apart in the source and are kept apart here.", "data": [{"compound": "CC1=CC(=O)CC(C)(C)[C@@]1(O)/C=C/C(C)=C\\C(=O)O", "note": "[ABA, Abscisic Acid, reference compound]", "values": [{"measurement": "EC50", "setting": "[1]; EC50, FIG. 2c", "result": 0.866, "unit": "µM"}, {"measurement": "EC50", "setting": "[1]; EC50, FIG. 2e", "result": 4.96, "unit": "µM"}, {"measurement": "EC50", "setting": "[1]; EC50, FIG. 2f", "result": 0.148, "unit": "µM"}, {"measurement": "EC50", "setting": "[1]; EC50, FIG. 2g", "result": 3.57, "unit": "µM"}, {"measurement": "leaf temperature versus DMSO control (leaf transpiration)", "setting": "Arabidopsis aba2-1; [2]", "result": "significantly increased compared to that with control (DMSO) treatment; also recorded: the leaf temperature was higher than that in the DMSO control group"}, {"measurement": "leaf temperature versus DMSO control (leaf transpiration)", "setting": "Arabidopsis aba2-1; [3]", "result": "had dropped to the level before spraying"}]}, {"compound": "CCCN1C(=O)OC(C)c2cc(NS(=O)(=O)Cc3c(F)c(F)c(C)c(F)c3F)ccc21", "note": "(stereo not shown) [Compound 0224]", "values": [{"measurement": "EC50", "setting": "[1]; FIG. 2c, read-out: EC50", "result": 0.0296, "unit": "µM"}, {"measurement": "EC50", "setting": "[1]; FIG. 2e, read-out: EC50", "result": 0.0921, "unit": "µM"}, {"measurement": "leaf temperature versus DMSO control (leaf transpiration)", "setting": "Arabidopsis aba2-1; 2 μM or 1 μM spray, four days after spraying, FIG. 4b", "result": "still significantly increased compared to that with control (DMSO) treatment; also recorded: still significantly higher than that in the DMSO control"}, {"measurement": "leaf temperature versus DMSO control (leaf transpiration)", "setting": "Arabidopsis aba2-1; [2]", "result": "significantly increased compared to that with control (DMSO) treatment; also recorded: the leaf temperature was higher than that in the DMSO control group"}, {"measurement": "leaf temperature versus DMSO control (leaf transpiration)", "setting": "Arabidopsis aba2-1; [3]", "result": "still significantly higher than that in the DMSO control"}, {"measurement": "duration of the leaf temperature increase", "setting": "Arabidopsis aba2-1; 5 μM spray", "result": "longer"}, {"measurement": "inhibitory effect on leaf transpiration compared with ABA", "setting": "Arabidopsis aba2-1", "result": "better than that of ABA"}]}, {"compound": "CCCN1C(=O)OC(C)(C)c2cc(NS(=O)(=O)Cc3c(F)c(F)c(C)c(F)c3F)ccc21", "note": "[Compound 0304]", "values": [{"measurement": "EC50", "setting": "[1]; FIG. 2c, read-out: EC50", "result": 0.0593, "unit": "µM"}, {"measurement": "leaf temperature versus DMSO control (leaf transpiration)", "setting": "Arabidopsis aba2-1; [2]", "result": "significantly increased compared to that with control (DMSO) treatment; also recorded: the leaf temperature was higher than that in the DMSO control group"}, {"measurement": "leaf temperature versus DMSO control (leaf transpiration)", "setting": "Arabidopsis aba2-1; [3]", "result": "still significantly higher than that in the DMSO control"}, {"measurement": "inhibitory effect on leaf transpiration compared with ABA", "setting": "Arabidopsis aba2-1", "result": "better than that of ABA"}]}, {"compound": "CCCN1C(=O)OCc2cc(NS(=O)(=O)Cc3c(F)c(F)c(C)c(F)c3F)ccc21", "note": "[Compound 0428]", "values": [{"measurement": "EC50", "setting": "[1]; FIG. 2f, read-out: EC50", "result": 0.0193, "unit": "µM"}, {"measurement": "leaf temperature versus DMSO control (leaf transpiration)", "setting": "Arabidopsis aba2-1; 5 μM/2 μM/1 μM, treated for one day, FIG. 4d", "result": "significantly increased compared to that with DMSO treatment; also recorded: higher than that in the DMSO control group"}]}, {"compound": "CCN1C(=O)OC(C)c2cc(NS(=O)(=O)Cc3c(F)c(F)c(C)c(F)c3F)ccc21", "note": "(stereo not shown) [Compound 0706]", "values": [{"measurement": "EC50", "setting": "[1]; FIG. 2e, read-out: EC50", "result": 0.101, "unit": "µM"}, {"measurement": "leaf temperature versus DMSO control (leaf transpiration)", "setting": "Arabidopsis aba2-1; [2]", "result": "significantly increased compared to that with control (DMSO) treatment; also recorded: significantly increased compared to the control (DMSO) treatment"}, {"measurement": "duration of the leaf temperature increase", "setting": "Arabidopsis aba2-1; 5 μM spray", "result": "equivalent to that of 0224"}]}, {"compound": "Cc1c(F)c(F)c(CS(=O)(=O)Nc2ccc3c(c2)C(C)OC(=O)N3CCCF)c(F)c1F", "note": "(stereo not shown) [Compound 0715]", "values": [{"measurement": "EC50", "setting": "[1]; FIG. 2e, read-out: EC50", "result": 0.0995, "unit": "µM"}, {"measurement": "leaf temperature versus DMSO control (leaf transpiration)", "setting": "Arabidopsis aba2-1; [2]", "result": "significantly increased compared to that with control (DMSO) treatment; also recorded: significantly increased compared to the control (DMSO) treatment"}, {"measurement": "duration of the leaf temperature increase", "setting": "Arabidopsis aba2-1; 5 μM spray", "result": "equivalent to that of 0224"}]}]}
